From ChEMBL document CHEMBL1142549, “New retinoid chemotypes: 9-cis-retinoic acid analogs with hydrophobic rings derived from terpenes as selective RAR agonists” (Bioorg Med Chem, 2008)
Calls of active or inactive are those of the source. The calls are words filed in the database; no cut-off is given here.

Target: T1, Retinoic acid receptor RXR-beta (Homo sapiens) (UniProt P28702)
T1 sequence (whole entry): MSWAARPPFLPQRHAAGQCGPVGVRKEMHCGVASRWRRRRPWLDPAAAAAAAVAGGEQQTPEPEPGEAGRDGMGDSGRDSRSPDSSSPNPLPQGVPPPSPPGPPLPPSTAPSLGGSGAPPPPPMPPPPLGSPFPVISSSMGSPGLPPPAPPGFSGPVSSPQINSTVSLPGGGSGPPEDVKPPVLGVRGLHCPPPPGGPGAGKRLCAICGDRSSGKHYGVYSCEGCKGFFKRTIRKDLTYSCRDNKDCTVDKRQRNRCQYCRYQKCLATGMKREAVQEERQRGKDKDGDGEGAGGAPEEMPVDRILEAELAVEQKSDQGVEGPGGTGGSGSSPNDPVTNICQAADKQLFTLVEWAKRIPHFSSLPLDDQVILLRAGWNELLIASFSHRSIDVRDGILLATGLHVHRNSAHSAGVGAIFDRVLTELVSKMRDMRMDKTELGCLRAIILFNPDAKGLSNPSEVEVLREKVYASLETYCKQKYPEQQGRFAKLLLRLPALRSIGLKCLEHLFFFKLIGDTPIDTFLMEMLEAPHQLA
Experiment: Agonist activity at human RXRbeta expressed in human HeLa cells assessed as relative luminescence units by luciferase assay relative to control
Assay type: functional, cell-based

CC(=C/C=C/C(C)=C/C(=O)O)/C=C/C1=C[C@H](C)CC[C@H]1C(C)C
Activity: Active
